Data on 13 molecules can be found in patent publication US20240116985A1, “STAPLED PEPTIDES AND METHODS THEREOF” (priority 2020, published 2024).

For test [1], the target named is T1, full-length beta-Catenin (Uniprot ID P35222) (Homo sapiens, UniProt P35222).
T1 construct: 10 nM full-length beta-Catenin (Uniprot ID P35222)
T1 sequence (P35222 1-781): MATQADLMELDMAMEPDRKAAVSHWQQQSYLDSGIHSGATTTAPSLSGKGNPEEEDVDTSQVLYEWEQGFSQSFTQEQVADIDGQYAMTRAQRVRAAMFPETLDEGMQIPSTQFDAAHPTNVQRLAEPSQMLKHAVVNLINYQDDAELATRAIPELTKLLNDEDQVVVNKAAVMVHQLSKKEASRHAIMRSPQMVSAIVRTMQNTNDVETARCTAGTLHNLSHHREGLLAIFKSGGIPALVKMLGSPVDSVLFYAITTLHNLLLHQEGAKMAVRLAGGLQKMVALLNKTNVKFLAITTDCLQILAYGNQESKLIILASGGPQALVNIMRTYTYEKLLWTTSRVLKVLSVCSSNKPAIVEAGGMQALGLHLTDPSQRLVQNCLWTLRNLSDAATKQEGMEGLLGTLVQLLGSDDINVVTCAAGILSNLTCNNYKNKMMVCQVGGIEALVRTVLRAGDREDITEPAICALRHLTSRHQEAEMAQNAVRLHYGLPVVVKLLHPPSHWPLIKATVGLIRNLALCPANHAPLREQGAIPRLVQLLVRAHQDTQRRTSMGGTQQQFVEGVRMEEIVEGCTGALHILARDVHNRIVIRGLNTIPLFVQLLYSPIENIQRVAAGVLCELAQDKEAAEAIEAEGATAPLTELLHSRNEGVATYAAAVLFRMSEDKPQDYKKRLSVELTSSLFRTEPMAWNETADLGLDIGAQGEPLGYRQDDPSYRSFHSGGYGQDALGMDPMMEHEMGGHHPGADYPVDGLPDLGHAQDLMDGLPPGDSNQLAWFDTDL
Kind of test: Fluorescence polarization IC50 (beta-catenin / 5FAM-TCF4 10-53 competition). As to conditions: fluorescence polarization; read-out: beta-Catenin FP IC50. The class given is binding.

In test [2] the target is T2, beta-catenin/TCF4 engagement (Homo sapiens, UniProt P35222).
T2 construct: expressed in transfected cells; host or cells: HEK293
T2 sequence (P35222 1-781): T1 sequence (P35222 1-781)
Nature of the test: Nano-BRET target engagement assay (B-cat-Halo & TCF4-Luc in HEK293 cells). Format: cell-based. As to conditions: read-out: NanoBRET Abs IC50.

The term IC50 denotes the concentration that gives 50% inhibition.

Take `CC(=O)N1CCC[C@]12CC=CCCCC1(CCCC=CCCCOC(=O)N3CC[C@@](C(=O)N[C@@H](Cc4ccccc4Cl)C(=O)N[C@@H](Cc4csc5ccccc45)C(=O)N[C@@H](CO)C(N)=O)(C3)NC(=O)[C@H](CC(C)C)NC(=O)[C@H](Cc3ccccc3)NC(=O)[C@H](C)NC(=O)C(C)(C)NC(=O)[C@H](Cc3cccc(C(=O)O)c3)NC(=O)[C@H](CC(=O)O)NC1=O)NC(=O)[C@H](CC(C)(C)C)NC(=O)[C@H](CC(=O)O)NC2=O` (stereo partly drawn) [I-1900, Ac-PL3-Asp-Npg-B5-Asp-3COOHF-Aib-Ala-Phe-Leu-PyrS2-2C1F-BztA-Ser-NH2]: the IC50 in test [1] is 136 nM; in test [2] it was greater than 20000 nM.

On to `CC(=O)N1CCC[C@]12CC=CCCCC1(CCCC=CCCCOC(=O)N3CC[C@@](C(=O)N[C@@H](Cc4ccccc4Cl)C(=O)N[C@@H](Cc4csc5ccccc45)C(=O)N[C@@H](CO)C(N)=O)(C3)NC(=O)[C@H](CC(C)C)NC(=O)[C@H](Cc3ccccc3)NC(=O)[C@H](C)NC(=O)[C@H](CO)NC(=O)[C@H](Cc3cccc(C(=O)O)c3)NC(=O)[C@H](CC(=O)O)NC1=O)NC(=O)[C@H](CC(C)(C)C)NC(=O)[C@H](CC(=O)O)NC2=O` (stereo partly drawn) [I-1901, Ac-PL3-Asp-Npg-B5-Asp-3COOHF-Ser-Ala-Phe-Leu-PyrS2-2C1F-BztA-Ser-NH2], for which the IC50 in test [1] was found to be 34 nM; in test [2], 4900 nM.

With `CC(=O)N1CCC[C@]12CC=CCCCC1(CCCC=CCCCOC(=O)N3CC[C@@](C(=O)N[C@@H](Cc4ccccc4Cl)C(=O)N[C@@H](Cc4csc5ccccc45)C(=O)N[C@@H](CO)C(N)=O)(C3)NC(=O)[C@H](CC(C)C)NC(=O)[C@H](Cc3ccccc3)NC(=O)[C@H](C)NC(=O)[C@H](CO)NC(=O)[C@H](Cc3cccc(C(=O)O)c3)NC(=O)[C@H](CC(=O)O)NC1=O)NC(=O)[C@H](CC(C)(C)C)NC(=O)[C@H](CC(=O)O)NC2=O` (stereo partly drawn) [I-1902, Ac-PL3-Asp-Npg-B5-Asp-3COOHF-Ser-Ala-Phe-Leu-PyrS2-2C1F-BztA-Ser-NH2], the IC50 in test [1] was 28 nM; in test [2], 7700 nM.

With `CC(=O)N1CCC[C@]12CC=CCCCC1(CCCC=CCCCOC(=O)N3CC[C@@](C(=O)N[C@@H](Cc4ccccc4Cl)C(=O)N[C@@H](Cc4csc5ccccc45)C(=O)N[C@@H](CO)C(N)=O)(C3)NC(=O)[C@H](CO)NC(=O)[C@H](Cc3ccccc3)NC(=O)[C@H](C)NC(=O)[C@H](C)NC(=O)[C@H](Cc3cccc(C(=O)O)c3)NC(=O)[C@H](CC(=O)O)NC1=O)NC(=O)[C@H](CC(C)(C)C)NC(=O)[C@H](CC(=O)O)NC2=O` (stereo partly drawn) [I-1903, Ac-PL3-Asp-Npg-B5-Asp-3COOHF-Ala-Ala-Phe-Ser-PyrS2-2C1F-BztA-Ser-NH2], the IC50 was 14 nM in test [1] and 6400 nM in test [2].

For `CC(=O)N1CCC[C@]12CC=CCCCC1(CCCC=CCCCOC(=O)N3CC[C@@](C(=O)N[C@@H](Cc4ccccc4Cl)C(=O)N[C@@H](Cc4csc5ccccc45)C(=O)N[C@@H](CO)C(=O)N[C@H](CO)[C@@H](C)O)(C3)NC(=O)[C@H](CC(C)C)NC(=O)[C@H](Cc3ccccc3)NC(=O)[C@H](C)NC(=O)[C@H](C)NC(=O)[C@H](Cc3cccc(C(=O)O)c3)NC(=O)[C@H](CC(=O)O)NC1=O)NC(=O)[C@H](CC(C)(C)C)NC(=O)[C@H](CC(=O)O)NC2=O` (stereo partly drawn) [I-1905, Ac-PL3-Asp-Npg-B5-Asp-3COOHF-Ala-Ala-Phe-Leu-PyrS2-2C1F-BztA-Ser-Thro1], the IC50 amounted to 20 nM in test [1] and 9700 nM in test [2].

Take `CC(=O)N1CCC[C@]12CC=CCCCC1(CCCC=CCCCOC(=O)N3CC[C@@](C(=O)N[C@@H](Cc4ccccc4Cl)C(=O)N[C@@H](Cc4csc5ccccc45)C(=O)N[C@@H](CO)C(=O)N4CCC[C@H]4CO)(C3)NC(=O)[C@H](CC(C)C)NC(=O)[C@H](Cc3ccccc3)NC(=O)[C@H](C)NC(=O)[C@H](C)NC(=O)[C@H](Cc3cccc(C(=O)O)c3)NC(=O)[C@H](CC(=O)O)NC1=O)NC(=O)[C@H](CC(C)(C)C)NC(=O)[C@H](CC(=O)O)NC2=O` (stereo partly drawn) [I-1906, Ac-PL3-Asp-Npg-B5-Asp-3COOHF-Ala-Ala-Phe-Leu-PyrS2-2C1F-BztA-Ser-Prool]: the figures for the IC50 in test [1] and in test [2] were 23 nM and 15500 nM, respectively.

For the molecule `CC(=O)N1CCC[C@]12CC=CCCCC1(CCCC=CCCCOC(=O)N3CC[C@@](C(=O)N[C@@H](Cc4ccsc4)C(=O)N[C@@H](Cc4csc5ccccc45)C(=O)N[C@@H](Cc4ccccc4)C(N)=O)(C3)NC(=O)[C@H](CC(C)C)NC(=O)[C@H](Cc3ccccc3)NC(=O)[C@H](C)NC(=O)[C@H](CCCCNC(C)C)NC(=O)[C@H](Cc3cccc(C(=O)O)c3)NC(=O)[C@H](CC(=O)O)NC1=O)NC(=O)[C@H](CC(C)(C)C)NC(=O)[C@H](CC(=O)O)NC2=O` (stereo partly drawn) [I-1909, Ac-PL3-Asp-Npg-B5-Asp-3COOHF-iPrLys-Ala-Phe-Leu-PyrS2-3Thi-BztA-Phe-NH2], the values for the IC50 in test [1] and in test [2] were 29 nM and greater than 20000 nM, respectively.

As for `CC(=O)N1CCC[C@]12CC=CCCCC1(CCCC=CCCCOC(=O)N3CC[C@@](C(=O)N[C@@H](Cc4ccsc4)C(=O)N[C@@H](Cc4csc5ccccc45)C(=O)N[C@@H](Cc4ccccc4)C(N)=O)(C3)NC(=O)[C@H](CC(C)C)NC(=O)[C@H](Cc3ccccc3)NC(=O)[C@H](C)NC(=O)[C@H](CCCCN)NC(=O)[C@H](Cc3cccc(C(=O)O)c3)NC(=O)[C@H](CC(=O)O)NC1=O)NC(=O)[C@H](CC(C)(C)C)NC(=O)[C@H](CC(=O)O)NC2=O` (stereo partly drawn) [I-1911, Ac-PL3-Asp-Npg-B5-Asp-3COOHF-Lys-Ala-Phe-Leu-PyrS2-3Thi-BztA-Phe-NH2], the IC50 in test [1] was 38 nM; in test [2] it was greater than 20000 nM.

Turning to `CC(=O)N1CCC[C@]12CC=CCCCC1(CCCC=CCCCOC(=O)N3CC[C@@](C(=O)N[C@@H](Cc4ccsc4)C(=O)N[C@@H](Cc4csc5ccccc45)C(=O)N[C@@H](Cc4ccccc4)C(N)=O)(C3)NC(=O)[C@H](CC(C)C)NC(=O)[C@H](Cc3ccccc3)NC(=O)[C@H](C)NC(=O)[C@H](CCC(N)=O)NC(=O)[C@H](Cc3cccc(C(=O)O)c3)NC(=O)[C@H](CC(=O)O)NC1=O)NC(=O)[C@H](CC(C)(C)C)NC(=O)[C@H](CC(=O)O)NC2=O` (stereo partly drawn) [I-1912, Ac-PL3-Asp-Npg-B5-Asp-3COOHF-Gln-Ala-Phe-Leu-PyrS2-3Thi-BztA-Phe-NH2], the IC50 in test [1] came out at 13 nM; in test [2], 11500 nM.

Take `CCCC[C@@H]1NC(=O)[C@H](Cc2cccc(C(=O)O)c2)NC(=O)[C@H](CC(=O)O)NC(=O)C2(CCCC=CCCCOC(=O)N3CC[C@@](C(=O)N[C@@H](Cc4ccsc4)C(=O)N[C@@H](Cc4csc5ccccc45)C(=O)N[C@@H](Cc4ccccc4)C(N)=O)(C3)NC(=O)[C@H](CC(C)C)NC(=O)[C@H](Cc3ccccc3)NC(=O)[C@H](C)NC1=O)CCCC=CC[C@]1(CCCN1C(C)=O)C(=O)N[C@@H](CC(=O)O)C(=O)N[C@@H](CC(C)(C)C)C(=O)N2` (stereo partly drawn) [I-1913, Ac-PL3-Asp-Npg-B5-Asp-3COOHF-nLeu-Ala-Phe-Leu-PyrS2-3Thi-BztA-Phe-NH2]: the IC50 in test [1] worked out at 119 nM; in test [2], 17500 nM.

In the case of `CC(=O)N1CCC[C@]12CC=CCCCC1(CCCC=CCCCOC(=O)N3CC[C@@](C(=O)N[C@@H](Cc4ccsc4)C(=O)N[C@@H](Cc4csc5ccccc45)C(=O)N[C@@H](Cc4ccccc4)C(N)=O)(C3)NC(=O)[C@H](CC(C)C)NC(=O)[C@H](Cc3ccccc3)NC(=O)[C@H](C)NC(=O)C(C)(C)NC(=O)[C@H](Cc3cccc(C(=O)O)c3)NC(=O)[C@H](CC(=O)O)NC1=O)NC(=O)[C@H](CC(C)(C)C)NC(=O)[C@H](CC(=O)O)NC2=O` (stereo partly drawn) [I-1914, Ac-PL3-Asp-Npg-B5-Asp-3COOHF-Aib-Ala-Phe-Leu-PyrS2-3Thi-BztA-Phe-NH2], the IC50 is 52 nM in test [1] and 6400 nM in test [2].

In the case of `CC(=O)N1CCC[C@]12CC=CCCCC1(CCCC=CCCCOC(=O)N3CC[C@@](C(=O)N[C@@H](Cc4ccsc4)C(=O)N[C@@H](Cc4csc5ccccc45)C(=O)N[C@@H](C)C(N)=O)(C3)NC(=O)[C@H](CC(C)C)NC(=O)[C@H](Cc3ccccc3)NC(=O)[C@H](C)NC(=O)[C@H](CCCCNC(C)C)NC(=O)[C@H](Cc3cccc(C(=O)O)c3)NC(=O)[C@H](CC(=O)O)NC1=O)NC(=O)[C@H](CC(C)(C)C)NC(=O)[C@H](CC(=O)O)NC2=O` (stereo partly drawn) [I-1915, Ac-PL3-Asp-Npg-B5-Asp-3COOHF-iPrLys-Ala-Phe-Leu-PyrS2-3Thi-BztA-Ala-NH2], the IC50 in test [1] was determined as 11 nM; in test [2] it was 20200 nM.

In the case of `CC(=O)N1CCC[C@]12CC=CCCCC1(CCCC=CCCCOC(=O)N3CC[C@@](C(=O)N[C@@H](Cc4ccsc4)C(=O)N[C@@H](Cc4csc5ccccc45)C(=O)N[C@@H](C)C(N)=O)(C3)NC(=O)[C@H](CC(C)C)NC(=O)[C@H](Cc3ccccc3)NC(=O)[C@H](C)NC(=O)[C@H](Cc3c[nH]cn3)NC(=O)[C@H](Cc3cccc(C(=O)O)c3)NC(=O)[C@H](CC(=O)O)NC1=O)NC(=O)[C@H](CC(C)(C)C)NC(=O)[C@H](CC(=O)O)NC2=O` (stereo partly drawn) [I-1916, Ac-PL3-Asp-Npg-B5-Asp-3COOHF-His-Ala-Phe-Leu-PyrS2-3Thi-BztA-Ala-NH2], the IC50 in test [1] stood at 8 nM; in test [2], 9200 nM.
